In patent US20240366644A1, “ANTI-INFLAMMATORY APPLICATION OF GINSENOSIDE RD” (priority 2022, published 2024):

Tested on: COVID-19 Delta virus-infected mice
Assay: IL-1β and MCP-1 expression (RT-qPCR) in lung homogenates of COVID-19 Delta virus-infected mice
Assay type: in vivo, hACE2 transgenic C57BL/6 mice
Conditions: 20 mg/kg administration group

## CC(C)=CCC[C@](C)(O[C@@H]1O[C@H](CO)[C@@H](O)[C@H](O)[C@H]1O)[C@H]1CC[C@]2(C)[C@@H]1[C@H](O)C[C@@H]1[C@@]3(C)CC[C@H](O[C@@H]4O[C@H](CO)[C@@H](O)[C@H](O)[C@H]4O[C@@H]4O[C@H](CO)[C@@H](O)[C@H](O)[C@H]4O)C(C)(C)[C@@H]3CC[C@]12C [Ginsenoside Rd, ginsenoside Rd]
  ability to inhibit the overexpression of inflammatory mediators compared with Dexamethasone: considerable to that of Dexamethasone
